These results are taken from patent US7033773B1, “Screening assays for G protein coupled receptor agonists and antagonists” (The General Hospital Corporation, priority 1997, dated 2006).

Each structure is given as a SMILES string. Read-outs that look alike come from different tables or passages of the source. Where a SMILES comes first, the peptide text is derived from it. [ ]: non-standard residue; d: D form. Nle = CCCC[C@H](N)C(=O)O

One experiment has as its target T1, rat PTHR (Rattus norvegicus, UniProt P25961).
T1 construct: expressed in transfected cells; host or cells: LLC-PK1 porcine renal epithelial cells (EW5; also EW29, AR-C38, AR-B44)
T1 sequence (P25961 27-591): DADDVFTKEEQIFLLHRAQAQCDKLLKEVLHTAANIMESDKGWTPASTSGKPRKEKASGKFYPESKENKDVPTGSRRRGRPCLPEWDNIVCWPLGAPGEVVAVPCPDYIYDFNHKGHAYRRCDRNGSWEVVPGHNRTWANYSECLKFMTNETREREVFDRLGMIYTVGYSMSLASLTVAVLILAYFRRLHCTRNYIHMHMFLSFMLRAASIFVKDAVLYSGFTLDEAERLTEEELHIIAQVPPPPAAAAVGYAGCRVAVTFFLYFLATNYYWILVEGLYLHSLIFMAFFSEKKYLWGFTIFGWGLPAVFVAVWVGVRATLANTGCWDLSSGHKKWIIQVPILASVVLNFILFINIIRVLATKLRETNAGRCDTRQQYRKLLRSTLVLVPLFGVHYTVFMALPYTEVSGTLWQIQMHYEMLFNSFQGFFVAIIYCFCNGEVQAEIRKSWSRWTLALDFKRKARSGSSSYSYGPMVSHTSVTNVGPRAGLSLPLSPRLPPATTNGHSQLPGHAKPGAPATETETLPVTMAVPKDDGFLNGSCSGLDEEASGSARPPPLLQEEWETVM
The experiment in a line: Competitive radioligand (Scatchard) binding to rat PTHRs expressed in LLC-PK1 cells. To be noted: Scatchard analysis, read-out: Apparent Kd. The procedure: (§1) In brief, the cells were seeded into 24-well plates at a density of 2.5×10^5 cells/well and cultured for a further 2 days before study. Cell layers were rinsed with ice-cold Buffer A [50 mM Tris-HCl (pH 7.7), 100 mM NaCl, 2 mM CaCl2, 5 mM KCl, 0.5% FBS, and 5% heat-inactivated horse serum] and then incubated with ^125I-labeled [Nle^8,18, Tyr^34]bovine (b) PTH(1-34) (1×10^5 cpm/well), with or without unlabeled peptide, in 0.5 ml of Buffer A for 6 h in the cold room (2-8° C.). […] All reagents, unless otherwise specified, were obtained from Sigma (St. Louis, Mo.), and all isotopes were purchased from Dupont-New England Nuclear (Boston, Mass.).

Experiment [1] concerns the target T2, human PTH/PTHrP receptor (Homo sapiens, UniProt Q03431).
T2 sequence (Q03431 27-593): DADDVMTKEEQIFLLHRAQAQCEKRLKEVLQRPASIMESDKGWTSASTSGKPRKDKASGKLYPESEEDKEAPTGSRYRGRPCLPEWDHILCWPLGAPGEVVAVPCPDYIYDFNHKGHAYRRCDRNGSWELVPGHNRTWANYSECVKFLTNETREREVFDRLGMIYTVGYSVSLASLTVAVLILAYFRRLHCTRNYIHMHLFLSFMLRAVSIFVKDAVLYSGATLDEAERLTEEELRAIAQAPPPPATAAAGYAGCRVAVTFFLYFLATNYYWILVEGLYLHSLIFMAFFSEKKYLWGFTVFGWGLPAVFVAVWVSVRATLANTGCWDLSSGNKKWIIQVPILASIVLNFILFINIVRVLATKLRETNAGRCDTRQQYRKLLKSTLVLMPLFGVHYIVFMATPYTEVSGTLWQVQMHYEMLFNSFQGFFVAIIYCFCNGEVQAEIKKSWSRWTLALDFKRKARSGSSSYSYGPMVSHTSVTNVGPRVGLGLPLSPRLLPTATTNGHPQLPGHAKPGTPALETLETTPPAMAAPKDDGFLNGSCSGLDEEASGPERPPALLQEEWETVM
Put plainly: Competitive radioligand (Scatchard) binding to human PTH/PTHrP receptors stably expressed in LLC-PK1 cells. More on the design: transfected with a full-length human PTH/PTHrP receptor cDNA; expressed in transfected cells. Conditions: Scatchard analysis, read-out: Apparent Kd. The method, then: FIGS. 1A-1B and 1C-1D. Competitive radioligand binding to human PTH/PTHrp receptors stably expressed in LLC-PK1 cells. LLC-PK1 cells stably expressing (FIGS. 1A-1B) 950,000 receptors/cell (HKRK B7) or (FIGS. 1C-1D) 280,000 receptors/cell (HKRK B28) were incubated with ^125I-[Nle^8,18,Tyr^34]bPTH(1-34) in binding buffer for 6 hr at 15° C. in the presence or absence of increasing concentrations of nonradioactive ligand. Scatchard plots are shown in the insets. Each point represents the mean± of triplicate determinations. Total radioligand bound ranged from 15,000-30,000 cpm/well, and nonspecific binding was 2-5% of total binding.
as §1
Radioligand competition assays and Scatchard analyses for two representative cell lines, HKRK B7 and HKRK B28, which express 950,000 and 280,000 hPTHRs per cell, respectively, are shown in FIGS. 1A-1D. […] In each case, the Scatchard analysis was linear, consistent with a single class of high affinity binding sites. The subsequent example described below was conducted with two cell lines, which were chosen as representative of those expressing relatively high (HKRK B7) and low (HKRK B28) densities of hPTHRs, respectively.

For experiment [2], the target named is T2, human PTH/PTHrP receptor. Put plainly: Urokinase-type plasminogen activator (u-PA) secretion bioassay in LLC-PK1 cells expressing human PTHR. Conditions: AB45 cells (hPTHR + REV AB dominant-negative PKA inhibitor), 16 hr.
Procedure: Cells were seeded into 96-well plates at a density of 6×10^4 cells/well and used the following day. The cells were washed once with 0.2 ml and then refed with 0.1 ml of prewarmed DMEM containing 0.05% BSA. After adding each stimulator, plates were returned to the incubator at 37° C. for 16 h. Conditioned medium (5 ul) then was transferred from each well to a clean microplate. […] Activity was expressed in Ploug units/well, using purified human urokinase (Calbiochem) as a standard.
Cells were incubated with the indicated peptides (1000 nM) for 16 hr before measurement of secreted u-PA present in the medium, which was expressed as a percentage of the activity measured in vehicle-treated controls. Values shown are means±SEM of triplicate determinations.
In experiment [3] the test system is human PTH/PTHrP receptor. Put plainly: Cytosolic free calcium (fura-2) in LLC-PK1 cells expressing human PTHR. Conditions: other experiments, hPTHR-expressing LLC-PK1 cells.
Procedure: Cytosolic free calcium was measured in fura 2AM-loaded confluent monolayers of cells.
Cytosolic free calcium was measured by dual fluorescence in cells loaded with the Ca^2+-sensitive intracellular probe fura-2. Cells were seeded onto glass coverslips at a density of 40,000-600,000/cm^2 and incubated for 2 days as described above. Coverslips were washed twice with PBS before loading in phosphate-free Buffer B containing 4 uM of fura-2/AM (Molecular Probes, Eugene, Oreg.) for 30 min at room temperature (22° C.). After washing twice with fura-free Buffer B, the coverslips were mounted in a cuvette containing 2 ml of phosphate-free Buffer B at 37° C. and the emission at 510 nm in response to alternating excitation at 340 and 380 nm was monitored using a ratiometric PTI Deltascan fluorescence spectrometer with excitation and emission bandwidths of 2 nm. After achieving a stable baseline, agonists were introduced by exchange into 2 ml of fresh buffer to which 10-20 ul of concentrated agonist stock (or vehicle alone) had been added. Peptide stocks were prepared in 0.1% trifluoroacetic acid, ionomycin and phorbol esters were dissolved in dimethyl sulfoxide and all other additives were prepared in water. Maximum and minimum fluorescence signals were obtained by exposure to modified buffers containing 1 uM ionomycin plus 20 mM calcium or 2 mM EGTA in the nominal absence of calcium, respectively, and autofluorescence was estimated from signals obtained in the presence of ionomycin plus 2.5 mM MnCl2.

Take `CCCC[C@H](NC(=O)[C@H](CO)NC(=O)[C@H](CO)NC(=O)[C@H](CC(C)C)NC(=O)[C@H](Cc1c[nH]cn1)NC(=O)[C@H](CCCCN)NC(=O)CNC(=O)[C@H](CC(C)C)NC(=O)[C@H](CC(N)=O)NC(=O)[C@H](Cc1c[nH]cn1)NC(=O)[C@H](CCCC)NC(=O)[C@H](Cc1ccccc1)NC(=O)[C@H](CCC(N)=O)NC(=O)[C@@H](NC(=O)[C@H](CCC(=O)O)NC(=O)[C@H](CO)NC(=O)[C@@H](NC(=O)[C@H](C)N)C(C)C)[C@@H](C)CC)C(=O)N[C@@H](CCC(=O)O)C(=O)N[C@@H](CCCNC(=N)N)C(=O)N[C@H](C(=O)N[C@@H](CCC(=O)O)C(=O)N[C@@H](Cc1c[nH]c2ccccc12)C(=O)N[C@@H](CC(C)C)C(=O)N[C@@H](CCCNC(=N)N)C(=O)N[C@@H](CCCCN)C(=O)N[C@@H](CCCCN)C(=O)N[C@@H](CC(C)C)C(=O)N[C@@H](CCC(N)=O)C(=O)N[C@@H](CC(=O)O)C(=O)N[C@H](C(=O)N[C@@H](Cc1c[nH]cn1)C(=O)N[C@@H](CC(N)=O)C(=O)N[C@@H](Cc1ccc(O)cc1)C(N)=O)C(C)C)C(C)C` [[Nle^8,18, Tyr^34]bPTH(1-34), [Nle^8,18, Tyr^34]bovine (b) PTH(1-34)] (H-AVSEIQF[Nle]HNLGKHLSS[Nle]ERVEWLRKKLQDVHNY-NH2; N-terminus assumed): the Kd on rat PTHR (EW5 cells, 320 x10^3 rat receptors/cell) turned out to be 2.3 nM; at rat PTHR (EW29 cells, 190 x10^3 rat receptors/cell), 2.5 nM; on human PTH/PTHrP receptor [1] (HKRH C58 cells, 1030 x10^3 receptors/cell), 3.6 nM; at human PTH/PTHrP receptor [1] (HKRK B5 cells, 840 x10^3 receptors/cell), 3.9 nM; at human PTH/PTHrP receptor [1] (HKRK B7 cells, 950 x10^3 receptors/cell), 4.5 nM; on human PTH/PTHrP receptor [1] (HKRK B28 cells, 280 x10^3 receptors/cell), 1.8 nM. In addition, the Kd at human PTH/PTHrP receptor [1] (HKRK B54 cells, 1020 x10^3 receptors/cell) was determined as 6.4 nM; at human PTH/PTHrP receptor [1] (HKRK B57 cells, 900 x10^3 receptors/cell), 5.6 nM; on human PTH/PTHrP receptor [1] (HKRK B64 cells, 90 x10^3 receptors/cell) it was 1.3 nM; at human PTH/PTHrP receptor [1] (HKRK C27 cells, 340 x10^3 receptors/cell), 2.2 nM; at human PTH/PTHrP receptor [1] (HKRK C30 cells, 600 x10^3 receptors/cell), 2.8 nM; at human PTH/PTHrP receptor [1] (HKRK C53 cells, 120 x10^3 receptors/cell), 1.2 nM. Further, the Kd at human PTH/PTHrP receptor [1] (HKRK C101 cells, 330 x10^3 receptors/cell) amounted to 1.6 nM.

With `CCCCCCCCCCCCCC(=O)O[C@@H]1[C@@H](C)[C@@]2(O)[C@@H](C=C(CO)C[C@]3(O)C(=O)C(C)=C[C@@H]23)[C@H]2C(C)(C)[C@]12OC(C)=O` [TPA], the “u-PA response in cAMP-resistant cells (in words)” value on human PTH/PTHrP receptor [2] is on record as “well-maintained”. The “calcium responses to PKA/PKC activators” value with human PTH/PTHrP receptor [3] is listed as “failed to elicit calcium responses”.
